Measured values from ChEMBL document CHEMBL1667840, “Chemical and biological explorations of the electrophilic reactivity of the bioactive marine natural product halenaquinone with biomimetic nucleophiles” (Bioorg Med Chem Lett, 2011).

Experiments:
Vero = test: Cytotoxicity against african green monkey Vero cells assessed as inhibition of [3H]hypoxanthine incorporation after 48 hrs; type: cell-based; conditions: Chlorocebus sabaeus
Plasmodium falciparum [1] = test: Antiplasmodial activity against chloroquine-resistant Plasmodium falciparum FcB1 after 48 hrs; type: functional, organism-based; conditions: FcB1/Columbia
Plasmodium falciparum [2] = test: Antiplasmodial activity against chloroquine-sensitive Plasmodium falciparum 3D7 after 48 hrs; type: functional, organism-based; conditions: 3D7, 48 h
Phospholipase A2 = target: T1, Phospholipase A2 (Apis mellifera, UniProt P00630); test: Inhibition of bee venom phospholipase A2 after 5 mins by spectrophotometric analysis
T1 sequence (P00630 whole entry): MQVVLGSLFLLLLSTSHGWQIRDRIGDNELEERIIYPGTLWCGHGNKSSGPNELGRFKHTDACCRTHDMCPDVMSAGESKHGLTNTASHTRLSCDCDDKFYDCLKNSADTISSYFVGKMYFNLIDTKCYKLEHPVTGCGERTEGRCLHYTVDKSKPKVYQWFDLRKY

[3] = Inhibition of Saccharomyces cerevisiae FTase after 15 mins by fluorimetric analysis
[4] = target: Protein farnesyltransferase (Homo sapiens, UniProt P49354+P49356); test: Inhibition of human FTase after 15 mins by fluorimetric analysis; type: protein-complex assay

| Structure (SMILES) | IC50 (Vero) [µM] | IC50 (Plasmodium falciparum [1]) [µM] | IC50 (Plasmodium falciparum [2]) [µM] | IC50 (Phospholipase A2) [µM] | IC50 [3] [µM] | IC50 [4] [µM] |
| --- | --- | --- | --- | --- | --- | --- |
| COC(=O)CN/C=C1\C(=O)CC[C@]2(C)C1=C(O)C(=O)c1cc3c(cc12)C(=O)C=CC3=O | 13.4 | 55.8 | 16.5 | 76.8 | – | – |
| CC(C)=CCC/C(C)=C/CN/C=C1\C(=O)CC[C@]2(C)C1=C(O)C(=O)c1cc3c(cc12)C(=O)C=CC3=O | 8.6 | 0.62 | 0.53 | 34.4 | 0.017 | 0.031 |
| CCCCCN/C=C1\C(=O)CC[C@]2(C)C1=C(O)C(=O)c1cc3c(cc12)C(=O)C=CC3=O | 6.3 | 9.2 | 7.4 | 23.9 | 0.041 | 0.057 |
| CC(C)(C)OC(=O)NCCN/C=C1\C(=O)CC[C@]2(C)C1=C(O)C(=O)c1cc3c(cc12)C(=O)C=CC3=O | 7.4 | 52.8 | – | 12.8 | – | – |
| CC1=CCCC2(C)C1=C(O)C(=O)c1cc3c(cc12)C(=O)C=CC3=O (stereo unspecified) [ORHALQUINONE] | > 62 | – | – | – | 0.4 | – |
| C[C@@]12CCC(=O)/C(=C\NCCc3ccccc3)C1=C(O)C(=O)c1cc3c(cc12)C(=O)C=CC3=O | 4.7 | 8.8 | 2.1 | 17.7 | 0.31 | 0.44 |
| C[C@@]12CCC(=O)c3coc(c31)C(=O)c1cc3c(cc12)C(=O)C=CC3=O [HELENAQUINONE] | > 60 | > 30 | 30 | – | 1.6 | – |
